{"source": "patent US9481743B2", "about": "“Polyelectrolyte polymers, their manufacture and use” (priority 2013, dated 2016)", "key": {"[1]": {"assay": "Slow heating within a mass spectrometer, perfluoro-tert-butanol fragment m/z 197 monitored", "assay_type": "physicochemical", "conditions": "heated slowly within a mass spectrometer", "excerpt": "Compound [3b]Cl was heated slowly within a mass spectrometer and the fragments of perfluoro-tert-butanol was monitored."}, "[2]": {"assay": "Solubility/miscibility tests", "assay_type": "physicochemical", "experimental": "Approximately 5-10 mg of compound was added to a test tube followed by the addition of 1.5 mL of solvent followed by 5 seconds of gentle stirring. If dissolution was not observed immediately, the mixture was further stirred and sonicated for 30 seconds. Material was deemed soluble if the resulting solution was free of particulate and haze, determined by visual inspection. […] If solutions remained hazy, they were referred to as emulsion mixtures."}, "[3]": {"assay": "Thermal degradation by thermal gravimetric analysis (TGA)", "assay_type": "physicochemical", "conditions": "10° C./min, nitrogen", "experimental": "Nuclear Magnetic Resonance (NMR) spectroscopy was conducted on a Varian INOVA 400 MHz spectrometer (^1H, 400.09 MHz, ^31P{^1H} 161.82 MHz, ^19F, 376.15 MHz). All ^1H spectra were referenced relative to tetramethyl silane (CDCl3; ^1H δH=7.26 ppm and CO(CD3)2; ^1H δH=2.04). The chemical shifts for ^31P{H} NMR spectroscopy were referenced using an external standard (85% H3PO4; δP=0). The chemical shifts for ^19F{^1H} NMR spectroscopy were also referenced using an external standard (trifluorotoluene; δF=−63.9 ppm). Infrared spectra were recorded using a Bruker Tensor 27 spectrometer using attenuated total reflectance mode (ATR) using a ZnSe crystal. […] Water contact angles (WCA) were measured using a Kruss DSA100 Drop Shape Analyzer and analyzed using Drop Shape Analysis. Thermal degradation was determined using Thermal Gravimetric Analysis (TGA) on a Q600 SDT TA instrument. […] Glass transition temperatures were determined using Differential Scanning calorimetry (DSC) on a DSC Q20 TA instrument. […] Melting points of all HFPS were determined using a Gallenkamp Variable Heater in air. Mass spectrometry was recorded in both positive and negative ion modes using electrospray ionization (ESI) Micromass LCT spectrometer. […] The positive or negative secondary ions were extracted from the sample surface, mass separated and detected via a reflectron-type time-of-flight analyser. […]"}, "[4]": {"test_system": "S. Aureus", "assay": "Antibacterial drop-test of UV-cured films", "assay_type": "cell-based", "experimental": "(§1) A desired amount of 2-hydrox-2-methy-1-phenyl-propanone (5 wt %), diacrylate crosslinker (EB 130, a cyclic aliphatic diacrylate) and the acrylate-appended phosphonium salt were weighed and combined in screw top vials. The mixture was then insonated at 45° C. for 20 min until the solutions were free of particulate and haze. After cooling to room temperature, the solutions were cast on polyester films and irradiated with UV light three times. Leached films were treated with H2O (Milli-Q) in a wrist action shaker for 4 hours, followed by washing with H2O (2×10 mL) and air drying. Both leached and unleached films were subjected to the antibacterial test (below).\n(§2) The antibacterial activities of the charged surfaces against Gram-negative bacteria Escherichia coli […] were studied using the antibacterial drop-test. E. coli precultured in 15 mL of nutrient broth (Difco™ BD) at 37° C. for 24 h, was washed by centrifuging at 4000 rpm for 10 min. After removing the supernatant, the cells were washed with phosphate buffered saline (PBS) twice and re-suspended and diluted to approximately 10^6 colony forming units (CFU)/mL in PBS solution. The samples were placed in sterilized Petri dishes. 100 μL of PBS solution with bacteria was added dropwise onto sterilized surfaces until completely covered. The petri dishes were sealed and placed in an incubator at 37° C. with the humidity 46%. After 4 hr, the bacteria were washed from the surface of the sample by using 10 mL PBS in the sterilized Petri dish. From this solution, 100 μL was spread onto solid plate count agar (Difco™ BD). After incubation for 24 h at 37° C., the number of surviving bacterial colonies on the Petri dishes were counted. The results after multiplication with the dilution factor were expressed as CFU per mL. The above experiments were carried out in triplicate for each sample. The percentage of killed bacteria was calculated as [(CFU of initial bacterial suspension−CFUs following surface contact)/CFU of initial bacterial suspension]×100."}, "[5]": {"test_system": "Escherichia coli", "assay": "Antibacterial drop-test of UV-cured films", "assay_type": "cell-based", "experimental": "as §1, §2"}, "[6]": {"assay": "Density of surface phosphonium cations by UV-vis (fluorescein dye)", "assay_type": "physicochemical", "experimental": "Characterization by FTIR-ATR spectroscopy confirmed the conversion of acrylate functionality post polymerization. Percent cure was determined using a literature procedure. The intensity of the acrylate vibration at 810 cm^−1 was compared to the C═O vibration at 1750 cm^−1 both before and after irradiation. […] The density of surface phosphonium cations was determined by UV-vis spectroscopy as described in a literature procedure.\nCharacterization by FTIR-ATR spectroscopy confirmed the conversion of acrylate functionality post polymerization. […] The density of surface phosphonium cations was determined by UV-vis spectroscopy as described in a literature procedure^23. […] This assumes a 1:1 ratio of positive and negative charge on the surface.\nBefore deposition of [Au25L18]^−, the number of accessible charges on the PPF was quantified. A known protocol utilizing fluorescein dye was employed to determine the value for the above system and to relate this quantity back to the percentage of phosphonium monomers that were included in the original formulation.^23 This procedure is commonly used as a characterization technique for films containing surface-bound quaternary salts. […] At 30 wt %, a dramatic increase in the number of quaternary charges was observed (1.5×10^15 cations/cm^2). Increasing the salt content to 37.5 and 47.5 wt % yielded surfaces with 8.2×10^15 and 1.4×10^16 cations/cm^2, respectively. […] Use of low melting phosphonium salts permits formation of a formulation having low viscosity despite the high ion content, allowing for ease of handling and deposition. Use of high melting point organic salts in a similar fashion generates formulations with relatively high viscosities or significant solubility issues, which manifest themselves in poor films. Advantages of the phosphonium-based acrylate monomer in the fabrication of the charged surfaces can thus be seen."}, "[7]": {"conditions": "of the protonated form; cited from earlier work"}}, "note": "Where “and” joins values, the source holds several entries; their conditions need not be identical. Identical values can stand only once."}
{"molecule": "C=Cc1ccc(C[P+](CCCOC(C(F)(F)F)(C(F)(F)F)C(F)(F)F)(CCCOC(C(F)(F)F)(C(F)(F)F)C(F)(F)F)CCCOC(C(F)(F)F)(C(F)(F)F)C(F)(F)F)cc1.[Cl-]", "note": "[[3b]Cl]", "values": [{"measurement": "Time at which signal at m/z=197 was at a maximum", "setting": "[1]", "value": 889, "unit": "s"}, {"measurement": "Time until fragment at m/z=197 was observed", "setting": "[1]", "value": 532, "unit": "s"}, {"measurement": "Solubility (in words)", "setting": "[2]; chloroform", "value": "soluble"}, {"measurement": "Solubility (in words)", "setting": "[2]; dichloromethane", "value": "soluble"}, {"measurement": "Solubility (in words)", "setting": "[2]; most solvents including diethyl ether", "value": "high solubility"}, {"measurement": "Decomposition Point", "setting": "[3]", "value": "198 °C and 197* ° C."}]}
{"molecule": "C=CC(=O)OCCC[P+](CCCC)(CCCC)CCCC.[Br-]", "note": "[[4]Br, (3-(acryloyloxy)propyl)tributylphosphonium bromide]", "values": [{"measurement": "% S. Aureus killed (unleached)", "setting": "[4]; 30% [4]Br in EB 130 film", "value": "100 ± 2", "unit": "%"}, {"measurement": "% S. Aureus killed (leached)", "setting": "[4]; 47.5% [4]Br in EB 130 film, leached", "value": "100 ± 2", "unit": "%"}, {"measurement": "% S. Aureus killed (unleached)", "setting": "[4]; 47.5% [4]Br in EB 130 film", "value": "100 ± 2", "unit": "%"}, {"measurement": "% E. coli killed (unleached)", "setting": "[5]; 25% [4]Br in EB 130 film", "value": "No"}, {"measurement": "% E. coli killed (unleached)", "setting": "[5]; 30% [4]Br in EB 130 film", "value": "30 ± 5", "unit": "%"}, {"measurement": "% E. coli killed (unleached)", "setting": "[5]; 37.5% [4]Br in EB 130 film", "value": "46 ± 7", "unit": "%"}, {"measurement": "% E. coli killed (unleached)", "setting": "[5]; 47.5% [4]Br in EB 130 film", "value": "82 ± 9", "unit": "%"}, {"measurement": "Charge/Unit area", "setting": "[6]; 25% [4]Br film", "value": "0 ×10^x Y^+/cm^2"}, {"measurement": "Charge/Unit area", "setting": "[6]; 30% [4]Br film", "value": "1.47 × 10^15 ×10^x Y^+/cm^2"}, {"measurement": "Charge/Unit area", "setting": "[6]; 37.5% [4]Br film", "value": "8.18 × 10^15 ×10^x Y^+/cm^2"}, {"measurement": "Charge/Unit area", "setting": "[6]; 47.5% [4]Br film", "value": "1.42 × 10^16 ×10^x Y^+/cm^2"}]}
{"molecule": "OC(C(F)(F)F)(C(F)(F)F)C(F)(F)F", "note": "[perfluoro-tert-butoxide]", "values": [{"measurement": "pKa", "setting": "[7]", "value": 5.2}]}
